We go through 4 compounds from publication PMC12299847, “Macroalgae-Inspired Brominated Chalcones as Cosmetic Ingredients with the Potential to Target Skin Inflammaging” (Marine Drugs, 2025).

The test system of data set [1] is NO production in LPS-stimulated RAW 264.7 macrophages. The data set can be described thus: NO production (Griess assay) in LPS-stimulated macrophages. The note with it: RAW 264.7, LPS 100 ng/mL; for IC50: Mus musculus, RAW264.7, 24 h, Griess. In kind it is cell-based, murine. As for the experimental part:
The anti-inflammatory potential of chalcones 1–7 was evaluated in macrophages cultured in the presence or absence (control) of LPS, as depicted in Figure 4. Under basal conditions (unstimulated, control), macrophages produce low levels of nitrites (≈12%). […] Each chalcone was tested at concentrations previously established as non-cytotoxic in macrophages, trying to ensure that observed changes in NO levels were not due to reduced cell viability.
The production of NO was evaluated by measuring nitrite accumulation in culture supernatants using the previously described Griess assay. Cells were seeded at a concentration of 5.0 × 10^4 cells/mL in a 96-well plate (200 μL/well) and allowed to stabilize overnight at 37 °C. Afterwards, the cells were treated with different concentrations of compound solutions and pre-incubated for 1 h at 37 °C. Subsequently, an LPS in PBS solution was added to each well, achieving a final concentration of 100 ng/mL, and the plate was left to incubate for 24 h. An amount of 150 μL of the cell culture supernatant was then transferred to a fresh 96-well plate, and an equal amount of Griess reagent [comprising a 1:1 mixture of 1% (w/v) sulphanilamide in 5% (v/v) phosphoric acid and 0.1% (w/v) naphthylethylenediaminedihydrochloride] was added. Following a 30 min incubation at room temperature in the dark, the absorbance was recorded at 550 nm using a Biotek Synergy HT plate reader (Biotek, CA, USA). The nitrite concentration in the supernatants was determined by comparing the absorbance of each sample to a sodium nitrite standard curve. The results, obtained from at least three independent experiments performed in duplicate, were expressed as a percentage of NO production by cells versus chemical concentration, relative to LPS condition (100%).
Figure 4 NO production by macrophages treated with LPS (100 ng/mL) or not (control) in the presence of chalcones 1–7. Results are expressed as a percentage of NO production by cells treated with LPS (100 ng/mL). Each value represents the mean ± SEM of four independent experiments in duplicate. Statistical analysis: one ANOVA with Dunnett’s multiple comparisons test, where p< 0.05 was considered significant. *** p < 0.005, relative to the control, and ^# p < 0.05, ^## p < 0.01, ^### p < 0.0005, and ^#### p < 0.0001, relative to LPS condition.
A general note: Griess reagent forms a coloured azo dye with nitrite.

The test system of data set [2] is iNOS protein levels in RAW264.7 macrophages. The data set can be described thus: Western blot analysis of iNOS expression in LPS-stimulated macrophages. The note with it: for iNOS expression level: normalized against LPS condition. It is filed as cell-based, murine. On the procedure: To investigate the underlying mechanism of action of the most promising brominated chalcones (1 and 2), their effects on iNOS protein levels were assessed in LPS-stimulated macrophages at different time points (4, 6, and 24 h). The non-treated (NT) condition, consisting of macrophages stimulated with LPS but receiving no chalcone treatment, was used as the reference for maximal iNOS induction under inflammatory conditions and served as a positive control. The selected concentrations (7.5 μM and 15 μM) were selected based on chalcones 1 and 2 cytocompatibility (Figure 3) and efficacy in reducing NO production (Figure 4). Since NO production is a direct consequence of iNOS enzymatic activity, where the enzyme catalyzes the conversion of L-arginine to NO following inflammatory stimulation such as LPS, this provides a functional readout of iNOS expression and activity.
Here, we focused on validating iNOS expression at the protein level by western blot (Figure 6). While gene-level expression was not assessed, it is well established that LPS stimulation induces both iNOS transcription and translation in RAW 264.7 macrophages. Moreover, changes observed at the protein level are often closely associated with upstream transcriptional or translational modulation. Therefore, quantifying iNOS protein levels provides a biologically relevant measure of the chalcones’ inhibitory effects on this key inflammatory mediator.
The expression of the iNOS enzyme was analyzed by western blot. RAW264.7 macrophages were seeded at a density of 1 × 10^6 cells/well in a 6-well plate and incubated for 24 h at 37 °C in a humidified atmosphere containing 5% CO2. After incubation, cells were treated with 7.5 µM or 15 µM of the most promising chalcones (1 and 2) for 30 min, followed by the addition of LPS to have a final concentration of 100 ng/mL. Cells were then incubated for 4, 6, or 24 h. At each time point, cells were washed with PBS and lysed in RIPA buffer. The lysates were collected in Eppendorf tubes and kept on ice, with intermittent vortexing to ensure thorough lysis. Samples were centrifuged at 18,000× g for 16 min at 4 °C, and the supernatant was collected. Total protein concentration was determined using the Pierce™ BCA Protein Assay Kit (Thermo Scientific, 23225, Waltham, MA, USA), following the manufacturer’s instructions. Equal amounts of protein (25 µg) were loaded onto Bolt™ 8% Bis-Tris Mini Protein Gels (Invitrogen™, NW00087BOX, Waltham, MA, USA) and separated via electrophoresis. Proteins were then transferred onto nitrocellulose membranes (Invitrogen™, IB24002) using the iBlot® 2 dry transfer system (Invitrogen™, Waltham, MA, USA). After transfer, membranes were sectioned to separate the iNOS bands from those of the housekeeping protein GAPDH. Membranes were blocked for 1 h at room temperature in TBS-T containing 5% BSA and subsequently incubated overnight at 4 °C with primary antibodies against iNOS (Cell Signaling Technology, 16713120S, Danvers, MA, USA) or GAPDH (Abcam, ab181602, Cambridge, UK), diluted in TBS-T with 1% BSA. On the following day, membranes were washed three times with TBS-T and incubated for 1 h at room temperature with an HRP-conjugated secondary antibody (Cell Signaling Technology, 7074S) diluted in TBS-T with 1% BSA. After three additional washes, signal detection was performed using Clarity™ Western ECL Substrate (Bio-Rad, 1705061, Hercules, CA, USA), and chemiluminescent signals were acquired using the Odyssey FC imaging system (LI-COR, Lincoln, NE, USA). Densitometric analysis of iNOS bands was performed using Image Studio™ Software (version 5.2, LI-COR, Lincoln, NE, USA), with values normalized to the corresponding GAPDH bands.
Figure 6 iNOS expression level after treatment of 4, 6, and 24 h with chalcones 1 and 2 in macrophage cell line. Results are expressed as volume arbitrary unit (A). […]
(Immunoblotting shows a protein as a band on a membrane.)

The nature of data set [3]: Resazurin cell viability assay in HaCaT keratinocytes. It is filed as cell-based, human. As to conditions: human, HaCaT keratinocytes, resazurin, read-out: IC50 (cell viability, cytotoxicity). As for the experimental part:
(§1) To evaluate the effects of chalcones 1–7 on cell viability after 24 h, a resazurin assay was performed using two cell lines: human HaCaT keratinocytes (HaCaT, CLS 300493), representing the epidermal layer, and murine RAW 264.7 macrophages (RAW 264.7, ATCC TIB-71), which model immune cells involved in dermal inflammatory responses. For the keratinocyte cell line, all seven brominated and non-brominated chalcones were tested across a concentration range from 2.5 μM to 125 μM (Figure 2).
(§2) Human keratinocytes (HaCaT, CLS 300493, Eppelheim, Germany) were cultured in DMEM supplemented with heat-inactivated FBS, and a penicillin and streptomycin antibiotic solution. The cell culture of keratinocytes was washed with 6 mL of phosphate buffer solution with 0.05% EDTA (Sigma-Aldrich, St. Louis, MO, USA) and detached using 3 mL of 0.05% trypsin + 0.02% EDTA in PBS solution when the cells reached 70–80% confluence in cell culture flasks. DMEM was also used to cultivate the mouse macrophage cell line (RAW 264.7, ATCC TIB-71, Manassas, VA, USA) together with 10% (v/v) non-inactivated FBS, 1.5 g/L sodium bicarbonate, and 100 U/mL penicillin and 100 μg/mL streptomycin stock (antibiotic solution). The macrophage culture was mechanically detached using a cell scraper, and the final amount of DMEM media with the cells was sub-cultured in a 1:10 ratio to the cellular suspension.
(§3) The resazurin reduction assay was employed to evaluate the metabolic activity of human epidermal keratinocyte (HaCaT) and murine macrophage (RAW264.7) cell lines, as outlined in a previous study. In brief, HaCaT cells (1.0 × 10^5 cells/mL) and RAW264.7 cells (5.0 × 10^4 cells/mL) were seeded in 96-well plates (200 μL/well) and incubated overnight at 37 °C to allow for cell attachment. Following this, the cells were treated with different concentrations of the test compounds and kept at 37 °C for 24 h. After 20 h, resazurin (500 μM in sterile phosphate buffer solution, pH 7.4) was added to each well to achieve a final concentration of 50 μM, followed by an additional incubation of 4 h. Absorbance was then measured at wavelengths of 570 and 620 nm using a SpectraMax Plus 384 absorbance microplate spectrophotometer (Molecular Devices, San Jose, CA, USA). Each experiment was conducted in triplicate, with a minimum of three independent assays. The results were graphically presented as the percentage of cell viability versus chemical concentration, relative to the control.
(§4) Figure 2 Cytotoxicity of chalcones 1–7 using a resazurin reduction assay in HaCaT cells by comparison with the control. Bar graphs represent the mean ± SEM of at least three independent experiments performed in triplicate. Statistical analysis: one ANOVA with Dunnett’s multiple comparisons test, where p < 0.05 was considered significant when compared to the control condition. * p < 0.05, ** p < 0.01, and *** p < 0.0005.
A general note: Resazurin is reduced to fluorescent resorufin, in cell work by metabolically active cells.

The subject of another data set is HaCaT keratinocytes. Described as above. It is filed as cell-based, human. The note with it: HaCaT, 24 h. On the procedure: as §1, §2, §3, §4
For a further data set, the system named is Nrf2. The data set can be described thus: KeratinoSens assay, Nrf2 luciferase reporter. The note with it: 100 µM, positive control. It is filed as cell-based, human. As for the experimental part: The KeratinoSens™ assay was originally developed to assess the skin sensitization potential of Nrf2 activation, but it has also been utilized to evaluate the ability of natural compounds to induce this transcription factor [46, 47]. In this study, we assessed the capacity of chalcones 1 and 2 to activate Nrf2 after 24 and 48 h (Figure 8A–F).
Selected compounds (chalcones 1 and 2), and the positive control, DMF, were dissolved in sterile DMSO. Intermediate dilutions were prepared in culture medium, including the final concentration to be added to the 96-well plate, with a final volume of 200 µL per well. The KeratinoSens™ assay was conducted as previously described. In brief, cells were seeded at a density of 10,000 cells per well in 96-well white opaque plates (Greiner Bio-One GmbH, cat. no. 655083, Kremsmünster, Austria) and incubated for 24 h. The medium was then replaced with fresh medium containing 1% FBS and the test compounds, and cells were incubated for an additional 24 and 48 h. DMF was used as the positive control since it is a known Nrf2 activator. Cell viability was assessed in the same cells using resazurin. After 20 or 44 h of exposure to the test compounds, 50 µM of resazurin solution (in sterile PBS) was added to each well, and the plates were incubated for 4 h at 37 °C, 5% CO2 Following the resazurin incubation, the supernatant was transferred to a transparent 96-well plate, and absorbance was measured at 570 and 620 nm using a Synergy HT multi-mode microplate reader (BioTek, Bad Friedrichshall, Germany). To measure luciferase activity, cells in the white opaque 96-well plates were washed with 1× PBS. An equal volume of 1× PBS and lysis buffer (One-GLO Luciferase, cat. no. E6130, Promega, Madison, WI, USA) was added to the wells, and the plates were incubated for 20 min at room temperature. Luminescence was then measured using a FLUOstar OMEGA Microplate Reader (BMG Labtech GmbH, Ortenberg, Germany).
Figure 8 Nrf2 activation using the KeratinoSens™ assay in HaCaT cells transfected with an Nrf2 luciferase reporter construct, incubated for 24 h (A–C) or 48 h (D–F) with chalcones 1 and 2. DMF was used as a positive control. Data represent the results from four independent experiments. Non-linear regression analysis was performed using GraphPad Prism v.9.0.0 for Windows. The blue line represents the results of cell viability (% regarding the control) and the green line represents fold induction. Statistical analysis: one ANOVA with Dunnett’s multiple comparisons test, where significance includes. * p < 0.05, ** p < 0.01, *** p < 0.0005, and **** p < 0.0001.

The structures appear in SMILES notation. Counter-ions that a name gives are not always drawn. Some results are limits rather than exact numbers.

In the case of `COc1ccc(/C=C/C(=O)c2cc(OC)c(OC)cc2Br)cc1OC` [Chalcone 2], the IC50 in data set [1] came to 0.77 ± 0.31 µM. In addition, the iNOS expression level in data set [2] (7.5 µM, 4 h) stood at 38.9%; in data set [2] (7.5 µM, 24 h) it was 20.2%; in data set [2] (15 µM, 4 h), 20.5%; in data set [2] (15 µM, 6 h), 5.7%; in data set [2] (15 µM, 24 h), 6.1%. Further, in data set [2] (7.5 µM, 24 h), the “maximum iNOS suppression” value is recorded as ~ 80%. Also, in data set [2] (15 µM, 6 h, stable up to 24 h), the iNOS suppression was ~ 95%.
Turning to `COc1ccc(/C=C/C(=O)c2ccc(OC)c(OC)c2)cc1OC` [Chalcone 3], in data set [1], the IC50 stood at 4.73 ± 0.67 µM. Moreover, the “concentration that reduced NO production to levels similar to the control” value in data set [1] (24 h) is 125 µM. The IC50 at 24 h in data set [3] is 62.1 ± 1.07 µM. In addition, in the data set with HaCaT keratinocytes (at 62.5 and 125 μM), the “reduction in cell viability” value is over 50%.
`COc1ccc(/C=C2\CCc3cc(OC)c(OC)cc3C2=O)cc1OC` [Chalcone 7]: the “reduction of NO production in LPS-stimulated cells” value in data set [1] (24 h) stood at 12%. For the same compound, the “maximal reduction in viability” value in the data set with HaCaT keratinocytes (significant effects only at 62.5 μM and 125 μM) was at most 15%.
As to `COC(=O)/C=C/C(=O)OC` [DMF, dimethyl fumarate, reference compound], the “Nrf2 activation, fold increase” value with Nrf2 is reported as 8.36 fold.

Usually IC50 stands for the midpoint of a concentration-inhibition curve.
